Test results: patent US20250059204A1, “FUSED BENZOISOXAZOLYL COMPOUNDS AS KAT6A INHIBITORS” (Aurigene Oncology Limited, priority 2021, published 2025)

Target: human-KAT6A (MYST domain 507-778 aa) (Homo sapiens (Human), UniProt Q92794)
Experiment: KAT6A biochemical assay (TR-FRET)
Details: H4 peptide 200 nM, acetyl-CoA 600 nM
Excerpt: TR-FRET based method was used for assaying compounds of the present invention for KAT6A enzyme inhibitory activity. TR-FRET is homogeneous proximity assay where Europium-labelled anti-acetyl lysine antibody binds to the acetylated substrate labelled with biotin which in turn binds to streptavidin labelled APC fluorescence acceptor. Europium can transfer energy to APC in the complex and the interaction of two dye-labelled binding partners is detected by the energy transfer between a donor and an acceptor dye, and the subsequent light emission by the acceptor dye. KAT6A transfer an acetyl group from acetyl CoA to lysine amino acids of histones/target proteins. Typically, 5 μL of human-KAT6A (MYST domain 507-778 aa) in assay buffer (100 mM Tris HCl (pH 7.8), 15 mM NaCl, 1 mM EDTA, 0.01% Tween-20, 0.02% BSA, 1 mM DTT) is added to 384-well plate containing 5 μL of selected test compound in final 1% DMSO, serially diluted in 1:3 in an 8-10-point titration. The selected compound of the present invention and enzyme are incubated for 30 min at room temperature. Next, 5 μL of substrate mix containing histone H4 peptide and acetyl-CoA in assay buffer is added to the plate. The final concentrations of H4 peptide and acetyl-CoA are 200 nM and 600 nM respectively. Following 30 min reaction at room temperature, 5 μL of detection mix containing Europium labelled anti-acetyl antibody and streptavidin-APC is added to the reaction wells. The plate is further incubated for 45 min at room temperature and is read in TR-FRET mode (Ex:340 nm; Em: 615 nm and 665 nm) on a plate reader. The percent inhibition was calculated from the ratio of the fluorescence (FL) intensities [(F665/F615)×10,000) using the formula […]. IC50 values of the compounds were determined by fitting the dose-response data to sigmoidal curve fitting equation using Graph pad prism software V8.

Chain of human-KAT6A (MYST domain 507-778 aa) (Q92794 507-778): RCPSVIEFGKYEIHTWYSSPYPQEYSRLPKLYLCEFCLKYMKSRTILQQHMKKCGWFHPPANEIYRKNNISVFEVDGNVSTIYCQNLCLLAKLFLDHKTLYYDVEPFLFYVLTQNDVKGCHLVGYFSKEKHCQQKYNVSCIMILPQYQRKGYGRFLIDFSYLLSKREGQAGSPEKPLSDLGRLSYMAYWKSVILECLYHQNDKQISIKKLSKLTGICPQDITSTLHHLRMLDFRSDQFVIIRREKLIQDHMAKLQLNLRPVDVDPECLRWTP

Compound	IC50 [µM]
COc1cccc(OC)c1S(=O)(=O)Nc1noc2cc(Cn3cccn3)c3c(c12)OCC3 [Compound 2, N-(4-((1H-pyrazol-1-yl)methyl)-2,3-dihydrobenzofuro[7,6-d]isoxazol-8-yl)-2,6-dimethoxybenzenesulfonamide]	0.02
COc1cccc(OC)c1S(=O)(=O)Nc1noc2cc(Cn3cccn3)c3c(c12)OC(C)C3 (stereo not drawn) [Compound 21, N-(4-((1H-pyrazol-1-yl)methyl)-2-methyl-2,3-dihydrobenzofuro[7,6-d]isoxazol-8-yl)-2,6-dimethoxybenzenesulfonamide]	0.019
COc1cccc(OC)c1S(=O)(=O)Nc1noc2cc(Cn3cccn3)c3c(c12)OC(C)C3 (single isomer, unassigned) [Compound 22, N-(4-((1H-pyrazol-1-yl)methyl)-2-methyl-2,3-dihydrobenzofuro[7,6-d]isoxazol-8-yl)-2,6-dimethoxybenzenesulfonamide]	0.021
COc1cccc(OC)c1S(=O)(=O)Nc1noc2cc(-c3ccc(C)o3)c3c(c12)OCC3 [Compound 9]	0.036
COc1cccc(OC)c1S(=O)(=O)Nc1noc2cc(-c3ccccc3)c3c(c12)OCCC3 [Compound 15]	0.045
COc1cccc(OC)c1S(=O)(=O)Nc1noc2cc(Cn3cc(C(F)(F)F)cn3)c3c(c12)OCC3 [Compound 36]	0.219
COc1cccc(OC)c1S(=O)(=O)Nc1noc2cc(-c3ccsc3)c3c(c12)OCC3 [Compound 3]	0.043
COc1cccc(OC)c1S(=O)(=O)Nc1noc2cc(Cn3cc(C#N)cn3)c3c(c12)OCC3 [Compound 33]	0.127
COc1cccc(OC)c1S(=O)(=O)Nc1noc2cc(-c3cccs3)c3c(c12)OCC3 [Compound 6]	0.046
O=S(=O)(Nc1noc2cc(Cn3cccn3)c3c(c12)OCC3)c1ccccc1OCc1ccccn1 [Compound 38]	0.032
COc1cccc(OC)c1S(=O)(=O)Nc1noc2cc(-c3ccccc3)c3c(c12)OC(C)C3 (stereo not drawn) [Compound 18]	0.037
COc1cccc(OC)c1S(=O)(=O)Nc1noc2cc(C(C)n3cccn3)c3c(c12)OCC3 (stereo not drawn) [Compound 20]	0.051
COc1cc(C(F)(F)F)ccc1S(=O)(=O)Nc1noc2cc(Cn3cccn3)c3c(c12)OCC3 [Compound 31]	0.018
COc1cccc(OC)c1S(=O)(=O)Nc1noc2cc(-c3ccccc3)c3c(c12)OCC3 [Compound 1, 2,6-dimethoxy-N-(4-phenyl-2,3-dihydrobenzofuro[7,6-d]isoxazol-8-yl)benzenesulfonamide]	0.057
COc1csc(-c2cc3onc(NS(=O)(=O)c4c(OC)cccc4OC)c3c3c2CCO3)c1 [Compound 7]	0.15
COc1cccc(OC)c1S(=O)(=O)Nc1noc2cc(-c3ccco3)c3c(c12)OCC3 [Compound 8]	0.043
COCc1cc2onc(NS(=O)(=O)c3c(OC)cccc3OC)c2c2c1CCO2 [Compound 19]	0.031
COc1cccc(OC)c1S(=O)(=O)Nc1noc2cc(-c3ccccc3)c3c(c12)OCCC3C (stereo not drawn) [Compound 17]	0.074
COc1cccc(OC)c1S(=O)(=O)Nc1noc2cc(Cn3ccc(C(F)(F)F)n3)c3c(c12)OCC3 [Compound 37]	0.494
COc1cccc(OC)c1S(=O)(=O)Nc1noc2cc(Cn3cc(F)cn3)c3c(c12)OCC3 [Compound 34]	0.026
COc1cccc(OC)c1S(=O)(=O)Nc1noc2cc(-c3scnc3C)c3c(c12)OCC3 [Compound 11]	0.088
COc1cccc(OC)c1S(=O)(=O)Nc1noc2cc(-c3ccc(C)s3)c3c(c12)OCC3 [Compound 12]	0.291
COc1cccc(OC)c1S(=O)(=O)Nc1noc2cc(Cn3cccn3)c3c(c12)OC(C)C3 (single isomer, unassigned) [Compound 23, N-(4-((1H-pyrazol-1-yl)methyl)-2-methyl-2,3-dihydrobenzofuro[7,6-d]isoxazol-8-yl)-2,6-dimethoxybenzenesulfonamide]	0.023
COc1cccc(OC)c1S(=O)(=O)Nc1noc2cc(-c3cc(C)cs3)c3c(c12)OCC3 [Compound 13]	0.071
COc1cccc(OC)c1S(=O)(=O)Nc1noc2cc(Cn3cc(Cl)cn3)c3c(c12)OCC3 [Compound 35]	0.027
COc1cccc(OC)c1S(=O)(=O)Nc1noc2cc(-c3ccoc3)c3c(c12)OCC3 [Compound 4]	0.029
COc1cc(-n2cccn2)ccc1S(=O)(=O)Nc1noc2cc(Cn3cccn3)c3c(c12)OCC3 [Compound 39]	0.022

Further lines, results first:

IC50 [µM]	Compound
0.158	COc1cccc(OC)c1S(=O)(=O)Nc1noc2cc(-c3cccnc3)c3c(c12)OCC3 [Compound 54]
0.035	O=S(=O)(Nc1noc2cc(Cn3cccn3)c3c(c12)OCC3)c1ccccc1F [Compound 51]
0.07	O=S(=O)(Nc1noc2cc(Cn3cccn3)c3c(c12)OCC3)c1ccccc1OC(F)(F)F [Compound 50]
0.034	COc1ccccc1S(=O)(=O)Nc1noc2cc(Cn3cccn3)c3c(c12)OCC3 [Compound 55]
0.021	COc1cccc(OC)c1S(=O)(=O)Nc1noc2cc(Cn3cccn3)c3cc(C)oc3c12 [Compound 58]
0.035	COc1cccc(OC)c1S(=O)(=O)Nc1noc2cc(-c3ccccc3)c3cc(C)oc3c12 [Compound 59]
0.027	COc1ccc(-n2cccn2)cc1S(=O)(=O)Nc1noc2cc(Cn3cccn3)c3c(c12)OCC3 [Compound 40]
0.02	CCc1ccc(OC)c(S(=O)(=O)Nc2noc3cc(Cn4cccn4)c4c(c23)OCC4)c1 [Compound 46]
0.135	COc1cccc(OC)c1S(=O)(=O)Nc1noc2cc(-c3ccccc3)c3c(c12)OC(C)(C)C3 [Compound 57]
0.0327	COc1cc2c(cc1S(=O)(=O)Nc1noc3cc(Cn4cccn4)c4c(c13)OCC4)CCC2 [Compound 44]
0.03	O=S(=O)(Nc1noc2cc(Cn3cccn3)c3c(c12)OCC3)c1c(F)cccc1F [Compound 48]
0.025	COc1cccc(OC)c1S(=O)(=O)Nc1noc2cc(Cn3ccnn3)c3c(c12)OCC3 [Compound 41]
0.099	COCC1Cc2c(Cn3cccn3)cc3onc(NS(=O)(=O)c4c(OC)cccc4OC)c3c2O1 (stereo not drawn) [Compound 60, N-(4-((1H-pyrazol-1-yl)methyl)-2-(methoxymethyl)-2,3-dihydrobenzofuro[7,6-d]isoxazol-8-yl)-2,6-dimethoxybenzenesulfonamide]
0.026	COc1cc(C(C)(C)C)ccc1S(=O)(=O)Nc1noc2cc(Cn3cccn3)c3c(c12)OCC3 [Compound 47]
0.029	O=S(=O)(Nc1noc2cc(Cn3cccn3)c3c(c12)OCC3)c1ccccc1-c1ccccc1 [Compound 53]
0.023	COc1ccc(C(=O)O)cc1S(=O)(=O)Nc1noc2cc(Cn3cccn3)c3c(c12)OCC3 [Compound 63, 3—(N-(4-((1H-pyrazol-1-yl)methyl)-2,3-dihydrobenzofuro[7,6-d]isoxazol-8-yl)sulfamoyl)-4-methoxybenzoic Acid]
0.01	COc1cc(C2CC2)ccc1S(=O)(=O)Nc1noc2cc(Cn3cccn3)c3c(c12)OCC3 [Compound 65, N-(4-((1H-pyrazol-1-yl)methyl)-2,3-dihydrobenzofuro[7,6-d]isoxazol-8-yl)-4-cyclopropyl-2-methoxybenzenesulfonamide]
0.012	COc1cc2c(cc1S(=O)(=O)Nc1noc3cc(Cn4cccn4)c4c(c13)OCC4)CCCC2 [Compound 43]
0.076	COc1ccc(C(C)(C)C)cc1S(=O)(=O)Nc1noc2cc(Cn3cccn3)c3c(c12)OCC3 [Compound 49]
0.04	O=S(=O)(Nc1noc2cc(Cn3cccn3)c3c(c12)OCC3)c1c(Cl)cccc1Cl [Compound 45]
0.0266	COC(=O)c1ccc(OC)c(S(=O)(=O)Nc2noc3cc(Cn4cccn4)c4c(c23)OCC4)c1 [Compound 42]
0.164	COCC1Cc2c(Cn3cccn3)cc3onc(NS(=O)(=O)c4c(OC)cccc4OC)c3c2O1 (single isomer, unassigned) [Compound 62, N-(4-((1H-pyrazol-1-yl)methyl)-2-(methoxymethyl)-2,3-dihydrobenzofuro[7,6-d]isoxazol-8-yl)-2,6-dimethoxybenzenesulfonamide]
0.28	COCC1Cc2c(Cn3cccn3)cc3onc(NS(=O)(=O)c4c(OC)cccc4OC)c3c2O1 (single isomer, unassigned) [Compound 61, N-(4-((1H-pyrazol-1-yl)methyl)-2-(methoxymethyl)-2,3-dihydrobenzofuro[7,6-d]isoxazol-8-yl)-2,6-dimethoxybenzenesulfonamide]
0.032	CCOc1ccccc1S(=O)(=O)Nc1noc2cc(Cn3cccn3)c3c(c12)OCC3 [Compound 52]
